Test results reported in publication PMC8658773, “Two New Isoprenoid Flavonoids from Sophora flavescens with Antioxidant and Cytotoxic Activities” (Molecules, 2021).
Where two headings read alike, the source gives them in different places.

Experiments:
HepG2 cells [1] = assay: Cytotoxic activity (MTS assay), HepG2; type: cell-based, human; settings: for IC50: 24 h, MTS; for inhibition at 10 µM: HepG2, 24 h, read-out: HepG2 inhibition rate
Method: (§1) The tests were conducted according to our previous reports. The cells were grown in DMEM medium supplemented with 10% FBS, penicillin (100 U/mL), and streptomycin (100 μg/mL) in a 37 °C and 5% CO2 incubator. The cytotoxic activities were performed by the MTS assay. Briefly, 28 compounds were dissolved with DMSO. The cells were seeded at 1 × 10^5 cells/mL in 96-well plates (100 µL/well) and cultured for 18 h when the cells filled the bottom of the wells. Then the supernatant was discard, the compounds (10 μM, 100 µL/well) were added to the culture and incubated for 24 h before cell viability measurement. 10 µL MTS reagent (0.5 mg/mL) were added and further incubated for 4 h. Finally, absorbance was read using an automatic micro-plate reader (Molecular Devices, USA) at 490 nm to test the cell viabilities, and the results were presented as the percent of non-treated control for each concentration. Irinotecan was used as the positive control. All measurements were repeated in triplicate. Data were expressed as the mean ± SD.

A549 cells [2] = assay: Cytotoxic activity (MTS assay), A549; type: cell-based, human; settings: for IC50: MTS
Method: as §1

LO2 cells = assay: Cytotoxic activity (MTS assay), LO2 normal cells; type: cell-based, human; settings: for inhibition at 10 µM: Homo sapiens, L02, read-out: LO2 cell inhibitory activity (Table S7)
HepG2 cells [3] = assay: Cytotoxic activity (MTS assay), HepG2; type: cell-based, human; settings: SD in brackets; for inhibition at 10 µM: Homo sapiens, HepG2, 10 µM, read-out: HepG2 cell inhibitory activity (Table S4)
[4] = PTIO free radical scavenging assay; type: biochemical; settings: for PTIO radical scavenging activity (inhibition rate): 8 μg/mL, SD in brackets
Method: PTIO free radical scavenging was also performed following previous reports with some modification. VC was used as the positive control. PTIO radicals were dissolved with phosphate buffer (PBS) (pH 7.4, 50 mM) with a concentration of 0.05 mg/mL. Then, the samples (40 µL, 40 µg/mL) and PTIO solution (160 µL) were added into 96-well plates (as the value of Ai). After being thoroughly mixed, the reaction solution was incubated at 37 °C in a water-bath for 2 h. Then, the absorbance was measured at 557 nm. PTIO free radical scavenging was calculated using the above equation. (40 µL PBS with 160 µL PTIO as A0, 40 µL compounds with 160 µL PBS as Aj).

MCF7 cells [5] = assay: Cytotoxic activity (MTS assay), MCF7; type: cell-based, human; settings: for inhibition at 10 µM / IC50: Homo sapiens, MCF7, 24 h; for inhibition at 10 µM: read-out: MCF7 inhibition rate; for IC50: MTS
Method: as §1

[6] = ABTS free radical scavenging assay; type: biochemical; settings: for ABTS radical scavenging activity (inhibition rate): 20 μg/mL, SD in brackets
Method: The third assay, the ABTS free radical scavenging screen was performed by previous experiments with slight changes. First, we needed to prepare for the ABTS^+ solution. […] Then, they were mixed with equal volume at room temperature and kept away from light for 12 h, the mixed solution was diluted with ethanol until the absorbance of […]. Thus, the ABTS^+ solution was obtained. Furthermore, the compounds (100 µL, 40 µg/mL) with ABTS^+ solution (100 µL) were also added to the 96-well plates (as the value of Ai) and were interacted for 10 min at room temperature in the dark, then the absorbance at 734 nm was measured. VC was used as the positive control. Antioxidant capacity was calculated according to the first formula (the value of 100 µL ethanol with 100 µL ABTS^+ solution as A0, the value of 100 µL compounds with 100 µL ethanol as Aj). All experiments were carried out in triplicate.

A549 cells [7] = assay: Cytotoxic activity (MTS assay), A549; type: cell-based, human; settings: SD in brackets; for inhibition at 10 µM: Homo sapiens, A549, read-out: A549 cell inhibitory activity (Table S5)
[8] = DPPH free radical scavenging assay; type: biochemical; settings: for DPPH radical scavenging activity (inhibition rate): 20 μg/mL, SD in brackets
Method: The in vitro antioxidant activity tests were conducted according to previous reports. Among them, the DPPH free radical scavenging assay was slightly modified. Briefly, the DPPH material was precisely weighed, ethanol solution was added to obtain a concentration of 0.1 mmol/L (to use immediately, or store in the dark). Then, the compounds (100 µL, 40 µg/mL) with DPPH solution (100 µL) (Ai) were added to 96-well plates and incubated for 30 min at room temperature. Subsequently, the activity was measured using the Thermo Scientific Varioskan LUX ([…], VL0L00D0, USA), with an absorbance of 570 nm. Vitamin C (VC) (40 µg/mL) was used as the positive control.

MCF7 cells [9] = assay: Cytotoxic activity (MTS assay), MCF7; type: cell-based, human; settings: SD in brackets; for inhibition at 10 µM: Homo sapiens, MCF7, read-out: MCF-7 cell inhibitory activity (Table S6)
[10] = tested on: HepG2, A549 and MCF7 cells; assay: Cytotoxic activity (MTS assay), stated jointly for three cancer cell lines; type: cell-based; settings: Homo sapiens, read-out: IC50 values against the three cancer cell lines (range)
Method: as §1

| Compound | PTIO radical scavenging activity (inhibition rate) [4] | DPPH radical scavenging activity (inhibition rate) [8] | inhibition at 10 µM (HepG2 cells [1]; Homo sapiens) [%] | inhibition at 10 µM (LO2 cells; SD in brackets) [%] | inhibition at 10 µM (HepG2 cells [3]) [%] | inhibition at 10 µM (MCF7 cells [5]) [%] | inhibition at 10 µM (A549 cells [7]) [%] | inhibition at 10 µM (MCF7 cells [9]) [%] | ABTS radical scavenging IC50 [6] [µg/mL] | further results |
| --- | --- | --- | --- | --- | --- | --- | --- | --- | --- | --- |
| kushenol A [Compound 13] | 35.6% (1.0%) | 25.6% (2.4%) | – | – | – | – | – | – | – | IC50 (HepG2 cells [1]): 6.85 µM; Inhibition of A549 cells (in words) (A549 cells [2]): could hardly inhibit; LO2 cell inhibitory activity (Table S7) (LO2 cells; 10 μg/mL, SD in brackets): 26.8% (2.7%); HepG2 cell inhibitory activity (Table S4) (HepG2 cells [3]; 10 μg/mL): 97.5% (0.1%); Inhibition of MCF7 cells (in words) (MCF7 cells [5]): could hardly inhibit; ABTS radical scavenging activity (inhibition rate) [6]: 81.5% (1.9%); A549 cell inhibitory activity (Table S5) (A549 cells [7]; 10 μg/mL): 17.6% (0.6%); MCF-7 cell inhibitory activity (Table S6) (MCF7 cells [9]; 10 μg/mL): 11.5% (2.1%) |
| C=C(C)C(CC=C(C)C)Cc1cc(OC)ccc1C1Oc2cc(O)cc(CC(CC=C(C)C)C(=C)C)c2C(=O)C1O (centres unmarked) [Compound 1, 7-hydroxy-5,1-bis (5-methyl-2-isopropyl-hexene) -flavanonol] | 37.3% (3.4%) | 40.0% (4.9%) | 84 | 29.4 | 84.1 | 85 | 58 | 85 | – | IC50 (HepG2 cells [1]; Homo sapiens, HepG2): 9.6 µM; inhibition at 10 µM (A549 cells [2]; Homo sapiens, A549, 10 μM, 24 h, read-out: A549 inhibition rate): 58%; IC50 (A549 cells [2]; Homo sapiens, A549, 24 h): 10.6 µM; Cytotoxic effect on LO2 human normal cells (in words) (LO2 cells; compared with cancer cells): little effect; IC50 (MCF7 cells [5]): 7.5 µM; IC50 [10]: 7.5 to 10.6 µM |
| C=C(C)C(CCC(C)(C)O)Cc1c(O)cc(OC)c2c1OC(c1ccc(O)cc1O)C(O)C2=O (centres unmarked) [Compound 4, kushenol L] | 39.4% (1.3%) | 37.1% (3.0%) | 4.6 | 3.2 | 4.6 | 0.7 | 8.2 | -0.7 | 3.72 | – |
| CCc1c2c(nc3ccc(OC(=O)N4CCC(N5CCCCC5)CC4)cc13)-c1cc3c(c(=O)n1C2)COC(=O)[C@]3(O)CC [irinotecan, reference compound] | – | – | – | – | – | – | – | – | – | IC50 (HepG2 cells [1]; Homo sapiens, HepG2): 0.6 µM; IC50 (A549 cells [2]; Homo sapiens, A549, 24 h): 1 µM; IC50 (MCF7 cells [5]): 0.9 µM |
| C=C(C)C(CC=C(C)C)Cc1c(O)c(OC)c2c(c1O)C(=O)C(O)C(c1ccc3c(c1)OCO3)O2 (centres unmarked) [Compound 2, 5,7-dihydroxy-8-methoxy-6-(5-methyl-2-iso-hexenyl)-3′,4′-methylene dioxy-flavanonol] | 41.0% (2.6%) | 42.3% (1.5%) | 19.9 | 27.9 | 19.9 | 10.3 | 17.2 | 10.3 | 1.81 | – |
| C=C(C)[C@H](CCC(C)(C)O)Cc1c(O)cc(OC)c2c1O[C@H](c1ccc(O)cc1O)[C@@H](O)C2=O [Compound 3, kushenol H] | – | 53.5% (0.4%) | 1.9 | 15.5 | 1.9 | 4.5 | 11.3 | -4.5 | 2.05 | – |
| COc1ccc(-c2coc3cc(O)cc(O)c3c2=O)cc1 [Compound 21, biochanin A] | 37.9% (0.6%) | 46.8% (1.8%) | – | 5.8 | 7.1 | – | 8.7 | 1 | – | ABTS radical scavenging activity (inhibition rate) [6]: 76.4% (1.3%) |
| COc1cc(O)c(CC=C(C)C)c2oc(-c3ccc(O)cc3)c(O)c(=O)c12 [Compound 14, sophoflavescenol] | 55.0% (9.4%) | – | – | 5.5 | 11.4 | – | 6.9 | 2.8 | 2.91 | PTIO radical scavenging IC50 [4]: 5.51 µg/mL; DPPH radical scavenging IC50 [8]: 3.52 µg/mL |
